Patent US12172983B2, “EGFR inhibitors” (Blueprint Medicines Corporation, priority 2019, dated 2024)
Read-outs that look alike come from different tables or passages of the source.

Legend:
[1] = tested on: phosphorylation of EGFR (Tyr1068) in NCI-H1975 cell line that harbors the EGFR L858R T790M mutations; assay: NCI-H1975 pEGFR AlphaLISA assay; assay type: cell-based; conditions: 4-5 hours incubation, read-out: Ext pEGFR H1975
Procedure, shortened: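 Phospho-EGFR Tyr1068 AlphaLISA readout: lysates taken from compound-treated H1975 cells (L858R T790M EGFR) after a 4-5 h exposure at 37 °C. Cells had adhered overnight beforehand. IC50 derived by plotting % pEGFR inhibition against log compound concentration.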

[2] = tested on: pEGFR_LR/TM/G796S mutant EGFR expressing Ba/F3 cells; assay: pEGFR_LR/TM/G796S AlphaLISA assay in Ba/F3 cells; assay type: cell-based; conditions: Mus musculus, BaF3, 4 hrs incubation, geometric mean, read-out: Ext pEGFR_LR/TM/G796S GMean IC50
Procedure: Mutant EGFR expressing Ba/F3 cells were resuspended in fresh 10% FBS RPMI and plated at 1.0×10^6 cells/mL. On the next day, the cells were harvested and diluted in fresh medium at 1.25×10^6 cells/mL. 40 μL of cells were added to each well of a 384-well microplate (Corning 3764). In a clear 384-well polypropylene microplate, test compounds and DMSO were added. DMSO was a negative control and staurosporine was a positive control. The cell plate was placed in a humidified 37° C. incubator for 4 hrs. The cell plate was spun to pellet the cells and the media was removed. 10 μL of 1×AlphaLISA Lysis Buffer with 1× protease and phosphatase inhibitors was added to the cells and plate was shaken at 600 rpm for 30 min. The cell lysates were transferred from cell plate to a white opaque 384-well microplate (OptiPlate-384). 5 μL of acceptor mix was added to the cell lysate and the plate was shaken at 600 rpm for 10 min, gently tapped and sealed with foil. It was then incubated at RT for 1.5-2 hr. Under low light conditions, lx donor mix was prepared right prior to use. 5 μL of donor mix was added to the plate under subdued lighting or green filters. The plate was shaken at 600 rpm for 10 min, gently tapped and sealed with foil. It was then incubated overnight at RT in dark. After overnight incubation, the plate was read on an EnVision Multilabel Reader. All IC50 representative curves were plotted using GraphPad Prism (version 8.00 for Windows, GraphPad Software, San Diego California USA). The percentage of inhibition on EGFR phosphorylation was calculated following equation below: […]
An IC50 was calculated by fitting the curve using Nonliner fit with log(inhibitor) vs. response−Variable slope (four parameters) model.

EGFR (L858R T790M C797S) = target: T1, EGFR (L858R T790M C797S) (Homo sapiens, UniProt P00533, C797S/L858R/T790M); assay: Biochemical EGFR inhibition assay (Caliper mobility shift), EGFR LRTMCS mutant; conditions: inhibitory activity against EGFR LRTMCS mutant; apparent IC50; read-out: Ext Enz LRTMCS
T1 construct: purchased SignalChem E10-122VG
Procedure, shortened: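 Kinase reactions at 25 °C run to 10–20% peptide phosphorylation, stopped with 35 mM EDTA. Phosphorylated product and substrate separated electrophoretically by mobility shift. Apparent IC50 from percent activity versus log compound concentration.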

[3] = target: T2, EGFR (D770_N771insNPG T790M) (Homo sapiens, UniProt P00533, INS770NPG/T790M); assay: Biochemical EGFR inhibition assay (mobility shift), EGFR D770_N771insNPG T790M; conditions: inhibitory activity against EGFR_D770_N771insNPG/T790M mutant; apparent IC50; read-out: Enz EGFR_D770_N771insNPG/T790M
T2 construct: purchased SignalChem E10-132TG
Procedure: Inhibitory effects of the compounds of the disclosure were measured in biochemical assays that measure the phosphorylation activity of EGFR enzyme phosphorylates 2.5 micromolar 5-FAM-[…]-CONH2 peptide substrate (FL-Peptide 22, PerkinElmer, 760366) in the presence of adenosine-5′-triphosphate (ATP) and varying concentrations of the test compound. […] Reactions proceeded until between 10% to 20% total peptides were phosphorylated at room temperature (25° C.) and were terminated with 35 mM 2,2′,2″,2′″-(ethane-1,2-diyldinitrilo)tetraacetic acid (EDTA). EGFR enzymatic activity was monitored using the Perkin Elmer electrophoretic mobility shift technology platform (the Caliper mobility shift detection method) where the phosphorylated peptide (product) and substrate were electrophoretically separated and measured. Percent activity was plotted against log concentration of compound and points to generate an apparent IC50. The following enzyme forms of EGFR were examples that were used in these assays: • EGFR WT (SignalChem, E10-112G) • EGFR (L858R T790M C797S) (SignalChem, E10-122VG) • EGFR (d746-750) T790M C797S (SignalChem, E10-122UG) • EGFR L858R (SignalChem, E10-122BG) • EGFR (d746-750) (SignalChem, E10-122JG) • EGFR (D770_N771insNPG T790M) (SignalChem, E10-132TG) • EGFR (D770_N771insNPG) (SignalChem, E10-132GG)

[4] = Homo sapiens, NCI-H1975, inhibition of phosphorylation of mutant EGFR in NCI-H1975 cells
[5] = inhibition of phosphorylation of mutant EGFR in NCI-H1975 cells

| Compound | IC50 [1, 4] [nM] | IC50 [2] [nM] | IC50 (EGFR (L858R T790M C797S)) [nM] | IC50 [3] [nM] | IC50 [1, 5] [nM] |
| --- | --- | --- | --- | --- | --- |
| CC(C)c1cnc(N2CC(CS(C)(=O)=O)C2)c2cnc(Nc3ccnc(N4CCOCC4)n3)cc12 [Compound 2, 8-[3-(methanesulfonylmethyl)azetidin-1-yl]-N-[2-(morpholin-4-yl)pyrimidin-4-yl]-5-(propan-2-yl)-2,7-naphthyridin-3-amine] | 30.1 to 50 | – | ≤ 15 | 250 to 750 | – |
| CC(C)c1cnc(N2CC(CS(C)(=O)=O)C2)c2cnc(Nc3ccnc(N4C[C@@H](F)[C@@H](F)C4)n3)cc12 [Compound 7, N-{2-[cis-3,4-difluoropyrrolidin-1-yl]pyrimidin-4-yl}-8-[3-(methanesulfonylmethyl)azetidin-1-yl]-5-(propan-2-yl)-2,7-naphthyridin-3-amine] | 10.1 to 20 | – | ≤ 15 | 250 to 750 | – |
| CCS(=O)(=O)C[C@H]1CN(c2cnc(C(C)C)c3cc(Nc4ccnc(N5CC[C@H](OCCO)[C@H](F)C5)n4)ncc23)[C@@H]1C [Compound 299, 2-{[(3R,4S)-1-[4-({8-[(2R,3S)-3-[(ethanesulfonyl)methyl]-2-methylazetidin-1-yl]-5-(propan-2-yl)-2,6-naphthyridin-3-yl}amino)pyrimidin-2-yl]-3-fluoropiperidin-4-yl]oxy}ethan-1-ol] | ≤ 10 | – | ≤ 15 | – | – |
| CC(C)c1ccc(N2C[C@H](CS(C)(=O)=O)[C@H]2C)c2cnc(Nc3ccnc(N4CC[C@H](O)[C@H](F)C4)n3)cc12 [Compound 311, (3R,4S)-3-fluoro-1-[4-({8-[(2R,3S)-3-(methanesulfonylmethyl)-2-methylazetidin-1-yl]-5-(propan-2-yl)isoquinolin-3-yl}amino)pyrimidin-2-yl]piperidin-4-ol] | ≤ 10 | – | ≤ 15 | – | – |
| [2H]C([2H])([2H])O[C@@H]1CCN(c2nccc(Nc3cc4c(C5CC5)ccc(N5C[C@H](CS(C)(=O)=O)[C@H]5C)c4cn3)n2)C[C@@H]1F [Compound 315, 5-cyclopropyl-N-(2-((3S,4R)-3-fluoro-4-(^2H3)piperidin-1-yl)pyrimidin-4-yl)-8-((2R,3S)-2-methyl-3-((methylsulfonyl)methyl)azetidin-1-yl)isoquinolin-3-amine] | ≤ 10 | – | ≤ 15 | – | – |
| [2H]C([2H])([2H])O[C@H]1CCN(c2nccc(Nc3cc4c(C5CC5)ccc(N5C[C@H](CS(C)(=O)=O)[C@H]5C)c4cn3)n2)C[C@H]1F [Compound 316, 5-cyclopropyl-N-(2-((3R,4S)-3-fluoro-4-(^2H3)piperidin-1-yl)pyrimidin-4-yl)-8-((2R,3S)-2-methyl-3-((methylsulfonyl)methyl)azetidin-1-yl)isoquinolin-3-amine] | ≤ 10 | – | ≤ 15 | – | – |
| (R)-ethyl({1-[3-({2-[(3S,4R)-3-fluoro-4-methoxypiperidin-1-yl]pyrimidin-4-yl}amino)-5-(propan-2-yl)isoquinolin-8-yl]azetidin-3-yl}methyl)imino-λ^6-sulfanone or (S)-ethyl({1-[3-({2-[(3S,4R)-3-fluoro-4-methoxypiperidin-1-yl]pyrimidin-4-yl}amino)-5-(propan-2-yl)isoquinolin-8-yl]azetidin-3-yl}methyl)imino-λ^6-sulfanone [Compound 272] | – | – | ≤ 15 | – | ≤ 10 |
| (R)-methyl({1-[3-({2-[(3R,4S)-3-fluoro-4-methoxypiperidin-1-yl]pyrimidin-4-yl}amino)-5-(propan-2-yl)isoquinolin-8-yl]azetidin-3-yl}methyl)imino-λ^6-sulfanone or (S)-methyl({1-[3-({2-[(3R,4S)-3-fluoro-4-methoxypiperidin-1-yl]pyrimidin-4-yl}amino)-5-(propan-2-yl)isoquinolin-8-yl]azetidin-3-yl}methyl)imino-λ^6-sulfanone [Compound 274] | – | – | 15.1 to 20 | – | 10.1 to 20 |
| (S)-ethyl({1-[3-({2-[(3S,4R)-3-fluoro-4-methoxypiperidin-1-yl]pyrimidin-4-yl}amino)-5-(propan-2-yl)isoquinolin-8-yl]azetidin-3-yl}methyl)imino-λ^6-sulfanone or (R)-ethyl({1-[3-({2-[(3S,4R)-3-fluoro-4-methoxypiperidin-1-yl]pyrimidin-4-yl}amino)-5-(propan-2-yl)isoquinolin-8-yl]azetidin-3-yl}methyl)imino-λ^6-sulfanone [Compound 273] | – | – | ≤ 15 | – | 20.1 to 30 |

Further lines, results first:

| IC50 [1, 4] [nM] | IC50 [2] [nM] | IC50 (EGFR (L858R T790M C797S)) [nM] | IC50 [3] [nM] | IC50 [1, 5] [nM] | Compound |
| --- | --- | --- | --- | --- | --- |
| ≤ 10 | ≤ 20 | – | – | – | CC(C)c1ccc(N2CC(CS(C)(=O)=O)C2)c2cnc(Nc3ccnc(N4CC[C@@H](O)[C@@](C)(F)C4)n3)cc12 (single isomer, unassigned) [Compound 55] |
| ≤ 10 | 20.1 to 100 | – | – | – | CC(C)c1ccc(N2C[C@H](CS(C)(=O)=O)[C@H]2C)c2cnc(Nc3ccnc(N4CC[C@@H](O)[C@@](C)(F)C4)n3)cc12 (single isomer, unassigned) [Compound 111] |
| ≤ 10 | 250 to 750 | ≤ 15 | – | – | CC(C)c1ccc(N2C[C@H](CS(C)(=O)=O)[C@H]2C)c2cnc(Nc3ccnc(N4CC[C@@](C)(O)[C@@H](F)C4)n3)cc12 (single isomer, unassigned) [Compound 117] |
| ≤ 10 | 250 to 750 | ≤ 15 | – | – | CC(C)c1ccc(N2C[C@H](CS(C)(=O)=O)[C@H]2C)c2cnc(Nc3ccnc(N4CC[C@](C)(O)[C@H](F)C4)n3)cc12 (single isomer, unassigned) [Compound 118] |
| ≤ 10 | – | ≤ 15 | 20.1 to 100 | – | CC(C)c1cnc(N2C[C@@H](CS(C)(=O)=O)[C@@H]2C)c2cnc(Nc3ccnc(N4CC[C@@H](O)[C@@](C)(F)C4)n3)cc12 (single isomer, unassigned) [Compound 128] |
| ≤ 10 | 20.1 to 100 | – | – | – | [2H]C([2H])([2H])O[C@@H]1CCN(c2nccc(Nc3cc4c(C(C)C)ccc(N5C[C@H](CS(C)(=O)=O)[C@H]5C)c4cn3)n2)C[C@@H]1F (single isomer, unassigned) [Compound 282] |
| ≤ 10 | 20.1 to 100 | – | – | – | [2H]C([2H])([2H])O[C@H]1CCN(c2nccc(Nc3cc4c(C(C)C)ccc(N5C[C@H](CS(C)(=O)=O)[C@H]5C)c4cn3)n2)C[C@H]1F (single isomer, unassigned) [Compound 283] |
| ≤ 10 | – | ≤ 15 | 100 to 250 | – | [2H]C([2H])([2H])O[C@@H]1CCN(c2nccc(Nc3cc4c(C(C)C)ncc(N5CC(CS(C)(=O)=O)C5)c4cn3)n2)C[C@@H]1F [Compound 265, N-{2-[(3S,4R)-3-fluoro-4-(^2H3)methoxypiperidin-1-yl]pyrimidin-4-yl}-8-[3-(methanesulfonylmethyl)azetidin-1-yl]-5-(propan-2-yl)-2,6-naphthyridin-3-amine] |
